According to EPA's ToxValDB 9.5:
Where “and” joins values, the source holds several entries; their conditions need not be identical. Equal values may be shown once.

Tests used:
[1] = tested on: Rattus norvegicus; conditions: oral
[2] = tested on: Rattus norvegicus; conditions: oral, gavage, Sprague-Dawley; for NOEL: short-term, duration: 28 days, Clinical Observation: Soft feces + Urinalysis: pH decrease + Hematology: PT increase, APTT increase + Blood Chemistry: T-CHO increase, T-BIL…
[3] = tested on: Rattus norvegicus; conditions: acute; oral; Sprague-Dawley
[4] = tested on: Mus musculus; conditions: oral, drinking water
[5] = tested on: Rattus norvegicus; conditions: oral; remark: listed apart in the source
[6] = subchronic, duration: 90 days, diet, M/F, reduced body weight
[7] = developmental, diet, M/F, increased body weight and liver weight, reduced ossification and slightly dilated ureters in fetuses, reduced offspring weight gain, total …
[8] = chronic, duration: 2 years, diet, M/F, reduced body weight
[9] = developmental, M/F, reduced pup survival
[10] = chronic, M/F, kidney damage and reduced lifespan
[11] = chronic, duration: 6 months, M, Kunming, novel object test (discrimination index) + open field (outer zone entry events)
[12] = chronic, duration: 6 months, M, Kunming, open field (center square entry events) + open field (middle zone line cross events)
[13] = chronic, duration: 6 months, drinking water, M/F, Sprague-Dawley, Morris water maze (escape time, acquisition, day 1)
[14] = developmental, drinking water, M/F, Wistar, generation: F1, F1: activity time (developmental phase III) + F1: open field (squares traveled, 9 min)

## CCCCOC(=O)COC(=O)c1ccccc1C(=O)OCCCC
[1]; chronic, no effects
  NOEL: 1000 mg/kg-day

## ClCC(Cl)(Cl)Cl [1,1,1,2-Tetrachloroethane]
[1]; chronic, gavage, M/F, mineralization of the kidneys (males), hepatic clear cell change (females)
  LOAEL: 125 mg/kg-day

## C1CSCCS1 [1,4-Dithiane]
[1]; subchronic, duration: 90 days, gavage, M/F, nasal olfactory lesions
  LOAEL: 105 mg/kg-day

## CCC(C)(C)c1ccc(O)c(C(C)(C)CC)c1 [2,4-Di-tert-pentylphenol]
[2]; subchronic, M, Deaths + Clinical Observation: Salivation/100 Soft feces/100 + Body Weight Changes: Body weight gain decrease + Urinalysis: Volume increase…
  NOAEL: 10 mg/kg-day
[3]
  LD50: 920 mg/kg

## CCC(C)c1cc(C(C)(C)C)c(O)c(C(C)(C)C)c1 (stereo not drawn) [4-(Butan-2-yl)-2,6-di-tert-butylphenol]
[2]; F
  NOEL: < 15 mg/kg-day
[2]; M
  NOEL: 15 mg/kg-day
[3]
  LC50: 4800 mg/kg

## NS(=O)(=O)[O-].[NH4+] [Ammonium sulfamate]
[1]; [6]
  LEL: 500 mg/kg-day
  NOEL: 250 mg/kg-day and 214 mg/kg-day

## COC(=O)NS(=O)(=O)c1ccc(N)cc1 [Asulam]
[1]; reproduction developmental, F, reduced ovarian weight, lower liver/body weight
  LEL: 50 mg/kg-day

## CCCCC(CC)COC(=O)CCCCC(=O)OCC(CC)CCCC (stereo not drawn) [Bis(2-ethylhexyl)hexanedioate]
[1]; [7]
  LOAEL: 1080 mg/kg-day
  NOAEL: 170 mg/kg-day

## CCCCN(CCCC)SN(C)C(=O)Oc1cccc2c1OC(C)(C)C2 [Carbosulfan]
[1]; [8]
  LEL: 25 mg/kg-day
  NOEL: 1 mg/kg-day

## COP(=O)(OC)O/C(C)=C/C(=O)N(C)C [Dicrotophos]
[1]; [9]
  LEL: 0.25 mg/kg-day
  NOEL: 0.1 mg/kg-day

## Cn1c(-c2ccccc2)cc(-c2ccccc2)[n+]1C [Difenzoquat]
[1]; [8]
  LEL: 125 mg/kg-day
  NOEL: 25 mg/kg-day

## CCOC(=O)COC(=O)c1ccccc1C(=O)OCC [Ethyl phthalyl ethyl glycolate]
[1]; [10]
  LOAEL: 2500 mg/kg-day
  NOEL: 250 mg/kg-day

## [F-] [Fluoride]
[4]; chronic, duration: 6 months, M/F, Kunming, active avoidance (shuttle box, 1st trial number where 3 consecutive conditioned avoidance responses occurred) + active avoidance (shuttle …
  LOEL: 2.63 mg/kg-day
[4]; chronic, duration: 6 months, M/F, Kunming, active avoidance (shuttle box, response latency to conditioned avoidance response averaged over 150 trials)
  NOEL: 26.3 mg/kg-day
[4]; [11]
  LOEL: 11.5 mg/kg-day
  NOEL: 5.63 mg/kg-day
[4]; chronic, duration: 6 months, M, Kunming, novel object test (time exploring familiar object, long-term memory phase) + novel object test (time exploring familiar object, short-term …
  NOEL: 11.5 mg/kg-day
[4]; [12]
  LOEL: 5.63 mg/kg-day
  NOEL: 2.82 mg/kg-day
[4]; chronic, duration: 6 months, M, Kunming, open field (middle zone entry events) + open field (outer zone line cross events) + open field (total distance moved)
  LOEL: 2.82 mg/kg-day
[4]; subchronic, duration: 90 days, M, Swiss, open field (defecation) + open field (grooming events) + open field (rearing events) + open field (squares crossed)
  LOEL: 9.58 mg/kg-day
[4]; subchronic, duration: 90 days, M, Swiss, tail suspension test (immobility time, total 6 min)
  NOEL: 9.58 mg/kg-day
[5]; chronic, duration: 4 months, diet, M, Hooded, T-maze, multiple (number of errors, acquisition, trial 1) + T-maze, multiple (number of errors, retention, trial 9) + T-maze, multiple (time…
  NOEL: 6.13 mg/kg-day
[5]; [13]
  LOEL: 5.96 mg/L urine
  NOEL: 2.59 mg/L urine
[5]; chronic, duration: 6 months, drinking water, M/F, Sprague-Dawley, Morris water maze (escape time, acquisition, day 5)
  NOEL: 5.96 mg/L urine
[5]; chronic, duration: 8 months, drinking water, F, Sprague-Dawley, acquisition of the bar press response (days to reach learning criteria) + acquisition of the bar press response (maximum response)
  NOEL (mg/kg ash femur): 14800
[5]; chronic, duration: 16 weeks, drinking water, F, Sprague-Dawley, activity box (attention cluster, total time) + activity box (groom cluster, initiations) + activity box (groom cluster, total time) + …
  NOEL: 19 mg/kg-day
[5]; chronic, duration: 16 weeks, drinking water, F, Sprague-Dawley, activity box (groom/attention cluster initiations) + activity box (groom/attention cluster total time) + activity box (groom/explore cluster…
  LOEL: 19 mg/kg-day
[5]; chronic, duration: 16 weeks, drinking water, M, Sprague-Dawley, activity box (attention cluster, total time) + activity box (groom cluster, initiations) + activity box (groom cluster, total time) + …
  LOEL: 19 mg/kg-day
[5]; chronic, duration: 16 weeks, drinking water, M, Sprague-Dawley, activity box (groom/attention cluster, total time) + activity box (head turn, initiations) + activity box (head turn, total time)
  NOEL: 19 mg/kg-day
[5]; chronic, duration: 104 days, drinking water, M, Sprague-Dawley, Von Frey hair test (withdrawal threshold, day 0)
  NOEL: 20.8 mg/kg-day
[5]; chronic, duration: 104 days, drinking water, M, Sprague-Dawley, tail immersion (withdrawal latency to heat, day 112) + Von Frey hair test (withdrawal threshold, day 104)
  LOEL: 10.4 mg/kg-day
[5]; chronic, duration: 195 days, drinking water, M, Lou/C, tail immersion (withdrawal latency to heat, 195 days) + Von Frey hair test (withdrawal threshold, 195 days) + Von Frey hair test (withdrawal…
  NOEL: 20.8 mg/kg-day
[5]; developmental, drinking water, F, Wistar, generation: F1, F1: pain response (latency time to respond to hot plate)
  LOEL: 5.29 mg/kg-day
[5]; developmental, drinking water, M/F, Sprague-Dawley, generation: F1, F1: Morris water maze (escape time, acquisition, average over days 1-4) + F1: Morris water maze (platform crossing, probe test, day 5) + F1…
  LOEL: 3.27 mg/kg-day
[5]; developmental, drinking water, M/F, Wistar, generation: F1, F1: Morris water maze (number of errors, acquisition) + F1: Morris water maze (time to find platform, probe test)
  NOEL: 1.06 mg/kg-day
[5]; developmental, drinking water, M/F, Wistar, generation: F1, F1: Morris water maze (number of errors, acquisition) + F1: Morris water maze (time to find platform, probe test) + F1: open field (face …
  LOEL: 5.29 mg/kg-day
[5]; developmental, drinking water, M/F, Wistar, generation: F1, F1: T-maze (number of errors, retention phase) + F1: T-maze (number of sessions to reach learning criterion)
  LOEL: 16 mg/kg-day
[5]; developmental, drinking water, M/F, Wistar, generation: F1, F1: activity time (developmental phase I) + F1: activity time (developmental phase II) + F1: activity time (developmental phase III) + F1: …
  NOEL: 5.29 mg/kg-day
[5]; [14]
  LOEL: 1.06 mg/kg-day
  NOEL: 0.21 mg/kg-day
[5]; developmental, drinking water, M/F, Wistar, generation: F1, F1: open field (face scrubbing events, 9 min)
  LOEL: 0.21 mg/kg-day
[5]; developmental, drinking water, M/F, Wistar, generation: F2, F2: T-maze (number of errors, retention phase) + F2: T-maze (number of sessions to reach learning criterion)
  LOEL: 16 mg/kg-day
[5]; developmental, drinking water, M/F, Wistar, generation: F3, F3: T-maze (number of errors, retention phase) + F3: T-maze (number of sessions to reach learning criterion)
  LOEL: 16 mg/kg-day
[5]; developmental, drinking water, M, Wistar, generation: F1, F1: pain response (latency time to respond to hot plate)
  LOEL: 5.29 mg/kg-day
[5]; subchronic, duration: 6 weeks, drinking water, F, Sprague-Dawley, activity box (attention cluster, total time) + activity box (groom/attention cluster, total time) + activity box (groom/explore cluster, …
  NOEL: 21.4 mg/kg-day
[5]; subchronic, duration: 6 weeks, drinking water, F, Sprague-Dawley, activity box (groom cluster, initiations) + activity box (groom cluster, total time) + activity box (groom, initiations) + activity box (…
  LOEL: 21.4 mg/kg-day
[5]; subchronic, drinking water, M/F, Sprague-Dawley, generation: P0, P0: Morris water maze (escape time, acquisition, average over days 1-4) + P0: Morris water maze (platform crossing, probe test, day 5) + P0…
  LOEL: 3.27 mg/kg-day
